This note sets out measurements from patent US10575520B2, “Cyclohexylamine-based compounds and uses thereof” (BOARD OF SUPERVISORS OF LOUISIANA STATE UNIVERSITY AND …, priority 2016, dated 2020).

For this data set, the system named is worker C. formosanus termites. The data set is described as follows: Dose-response feeding assay (termite mortality on treated filter paper). From the text: Worker C. formosanus were collected from Brechtel Park, New Orleans, La. by methods known in the art. Bait crates (open-mesh plastic containers) filled with southern yellow pine or spruce-pine-fir sapwood were arranged into a lattice and buried near a C. formosanus infested tree and collected after 3 to 9 weeks. Termite-containing crates were held in 250-liter plastic garbage cans kept at room temperature (26-28 C) and 70-80% relative humidity with the original food source. Termites were collected from New Orleans on 13 Jun. 2006 (collection group A); 9 Aug. 2006 (collection group B); 1 Mar. 2008 (collection group C); 9 May 2008 (collection group D); 20 May 2008 (collection group E); 20 Mar. 2009 (collection group F); 29 May 2009 (collection group G) and 11 May 2010 (collection group H); 18 Aug. 2012 (collection group I); May 2014 (collection group J); August 2014 (collection group K). The termite collection procedure was tapping infested wood sticks into clean plastic containers where termites were collected on moistened paper towels.
2-phospho-myo-inositol (dicyclohexylamine salt), glycerol-3-phosphate (dicyclohexylamine salt), dicyclohexylamine phosphate, monocyclohexylamine phosphate, and neat cyclohexylamine were screened for termiticide activity as follows: test compounds were applied to 42.5 mm×3 μm filter papers, in 60×15 mm plastic Petri dishes, in a solution of 1 mg of test compound per 10 μL of distilled water. Doses of 2.5 mg (160.2 μg/mm^3 of filter paper), 5 mg (320.4 μg/mm^3) 10 mg (640.8 μg/mm^3), and 20 mg (1281.7 μg/mm^3) of 2-phospho-myo-inositol were examined. Following filter paper treatment distilled water was added to bring the total volume applied to the filter papers to 300 μL, using 300 μL of distilled water as control. Cyclohexylamine was applied to the paper diluted in amounts of 300 μL, in concentrations ranging from 0.626 to 10.2 μg/mm^3. To prevent desiccation, approximately 50 μL of distilled water was applied to filter paper throughout the trials every third day, or upon observing that a filter paper disc was relatively dry. To test whether termite mortality was induced by consumption of the cyclohexylamine-treated paper, or whether vapor presence of cyclohexylamine was responsible for the toxicity, we compared addition of cyclohexylamine to both paper and fiberglass filters—the latter of which they will not consume. In addition to pure cyclohexylamine, dicyclohexylamine phosphate and monocyclohexylamine phosphate were tested for toxicity. Dicyclohexylamine phosphate was tested in concentrations ranging from 0.348 to 348 μg/mm^3, and monocyclohexylamine phosphate was tested in concentrations ranging from 2.28 to 228 μg/mm^3. Replicates of twenty worker termites were incubated in the dark in a parafilm-sealed Petri dish at room temperature for 2 weeks. Termite mortality was recorded daily in triplicate experiments. An analysis of variance (ANOVA) (SAS ANOVA procedure) followed by Tukey's Studentized range test was used to evaluate statistical differences among groups (Institute 1989). All mortality data were judged at a=0.05.
Termites from collection group B were used in the 2-Phospho-Myo-Inositol dose mortality assay. Termites from collection groups C and D were used in both the dicyclohexylamine-2-phophoinositol, and dicylclohexyalmine-glycerol-3-phosphate dose mortality assay. Termites from collection group I were used in cyclohexylamine dose mortality assays. Termites from collection […] in the dicyclohexylamine phosphate and neat cyclohexylamine volatility dose mortality assays. Termites from collection group K were used in the monocyclohexylamine phosphate dose mortality assay.

For `C1CCC(NC2CCCCC2)CC1.O=P(O)(O)O` [Dicyclohexylamine Phosphate, Dicyclohexylamine phosphate], the “day on which mortality became significantly higher” value (0.348 μg/mm^3) is on record as “three”. This molecule also registered a mortality (0.348 μg/mm^3, day 14) of 28%; a mortality (4.90 μg/mm^3, day 14) of 38%; a mortality (9.8 μg/mm^3, day 14) of 36%; a mortality (68.88 μg/mm^3, day 14) of 45%; a mortality (348 μg/mm^3, first day) of 100%. Besides, the mortality versus control result is “The two highest dosage groups, 4.90 and 9.80 μg/mm^3, displayed mortality significantly different than the control” (1.22 μg/mm^3); “The two highest dosage groups, 4.90 and 9.80 μg/mm^3, displayed mortality significantly different than the control” (2.45 μg/mm^3). Further, the “day on which mortality became significantly different” value is, setting by setting: (4.90 μg/mm^3) “three”; (9.8 μg/mm^3) “four”; (68.88 μg/mm^3) “five”. Further, the “mortality versus control group” value runs as follows: (17.22 μg/mm^3) “significantly different than the control group”; (34.44 μg/mm^3) “significantly different than the control group”.

Regarding `NC1CCCCC1.O=P(O)(O)O` [Monocyclohexylamine Phosphate, Monocyclohexylamine phosphate], the mortality versus control result (2.28 μg/mm^3) is recorded as “not significantly different from the control” and the mortality versus control entry (22.8 μg/mm^3) is “not significantly different from the control”. In addition, for the setting “228 μg/mm^3”, the “day on which mortality became significantly different” value was determined as 10 days. Also, the mortality (228 μg/mm^3, day 10) is recorded as 38% and the mortality (228 μg/mm^3, day 14) is 100%.

On to `C1CCC(NC2CCCCC2)CC1.O=P(O)(O)OCC(O)CO` [glycerol-3-phosphate (dicyclohexylamine salt)], for which the “day on which mortality became significant” value reads like this: (higher dosage group, 640.8 μg/mm^3) 5 days; (lower dosage group, 320.4 μg/mm^3) 12 days. Moreover, the mortality (higher dosage group, 640.8 μg/mm^3, day 12) is 98% and the mortality (lower dosage group, 320.4 μg/mm^3, day 14) came to 71%.
